Assays:
Test in all cases: KINOMEscan competition binding
Details in all cases: compound 10.0 µM
[1] = target: ACVRL1 (human) (UniProt P37023)
[2] = target: ADCK4 (human) (UniProt Q96D53)
[3] = target: BRAF (human) (UniProt P15056)
[4] = target: CAMK2B (human) (UniProt Q13554)
[5] = target: CDK9 (human) (UniProt P50750)
[6] = target: CHEK1 (human) (UniProt O14757)
[7] = target: CHUK (human) (UniProt O15111)
[8] = target: CSNK1G2 (human) (UniProt P78368)
[9] = target: CSNK1G3 (human) (UniProt Q9Y6M4)
Chain of CSNK1G3 (human) (Q9Y6M4 whole entry, looked up): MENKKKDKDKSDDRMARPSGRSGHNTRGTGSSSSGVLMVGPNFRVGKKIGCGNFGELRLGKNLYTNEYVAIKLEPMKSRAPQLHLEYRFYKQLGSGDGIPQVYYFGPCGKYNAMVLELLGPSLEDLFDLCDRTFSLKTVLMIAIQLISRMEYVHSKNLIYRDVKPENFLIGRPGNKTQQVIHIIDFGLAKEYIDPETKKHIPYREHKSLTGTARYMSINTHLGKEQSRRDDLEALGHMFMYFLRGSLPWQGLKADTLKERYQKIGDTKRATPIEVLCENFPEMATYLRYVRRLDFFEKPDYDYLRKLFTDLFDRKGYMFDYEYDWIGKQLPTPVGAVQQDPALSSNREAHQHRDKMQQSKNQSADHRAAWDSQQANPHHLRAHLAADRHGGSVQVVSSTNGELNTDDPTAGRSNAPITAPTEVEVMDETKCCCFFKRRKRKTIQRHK

[10] = target: DCLK1 (human) (UniProt O15075)
[11] = target: DYRK1A (human) (UniProt Q13627)
[12] = test system: EGFR (human), P00533 [752-759 del]
[13] = target: EPHA6 (human) (UniProt Q9UF33)
[14] = target: HIPK2 (human) (UniProt Q9H2X6)
[15] = target: IRAK3 (human) (UniProt Q9Y616)
[16] = test system: KIT (human), P10721 [L576P]
[17] = target: MAP2K4 (human) (UniProt P45985)
[18] = target: MAP3K2 (human) (UniProt Q9Y2U5)
[19] = target: MAP3K5 (human) (UniProt Q99683)
[20] = target: MAPK15 (human) (UniProt Q8TD08)
[21] = target: MAPK9 (human) (UniProt P45984)
Chain of MAPK9 (human) (P45984 whole entry, looked up): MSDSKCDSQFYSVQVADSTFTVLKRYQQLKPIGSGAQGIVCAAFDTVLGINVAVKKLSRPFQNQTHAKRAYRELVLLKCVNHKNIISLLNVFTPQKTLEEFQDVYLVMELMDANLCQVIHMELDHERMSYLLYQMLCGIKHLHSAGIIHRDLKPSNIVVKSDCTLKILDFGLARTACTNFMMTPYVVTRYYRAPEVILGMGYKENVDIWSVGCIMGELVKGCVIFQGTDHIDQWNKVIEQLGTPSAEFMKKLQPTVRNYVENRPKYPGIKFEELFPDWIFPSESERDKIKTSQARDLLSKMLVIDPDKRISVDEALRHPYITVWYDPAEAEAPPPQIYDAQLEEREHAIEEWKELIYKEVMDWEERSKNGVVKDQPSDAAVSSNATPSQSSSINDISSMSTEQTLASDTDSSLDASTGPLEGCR

[22] = target: NEK5 (human) (UniProt Q6P3R8)
[23] = target: NEK6 (human) (UniProt Q9HC98)
Chain of NEK6 (human) (Q9HC98 whole entry, looked up): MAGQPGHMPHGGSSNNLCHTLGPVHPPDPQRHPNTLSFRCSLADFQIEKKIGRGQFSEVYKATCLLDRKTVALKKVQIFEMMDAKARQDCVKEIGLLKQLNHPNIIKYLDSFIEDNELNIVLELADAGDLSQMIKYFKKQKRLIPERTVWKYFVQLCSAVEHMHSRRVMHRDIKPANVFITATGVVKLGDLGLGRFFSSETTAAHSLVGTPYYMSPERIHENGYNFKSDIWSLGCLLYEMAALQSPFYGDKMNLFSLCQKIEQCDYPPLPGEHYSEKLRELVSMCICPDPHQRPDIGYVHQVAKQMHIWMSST

[24] = target: NEK7 (human) (UniProt Q8TDX7)
[25] = target: OXSR1 (human) (UniProt O95747)
[26] = target: PKN1 (human) (UniProt Q16512)
[27] = target: PLK1 (human) (UniProt P53350)
[28] = target: PRKAA2 (human) (UniProt P54646)
Chain of PRKAA2 (human) (P54646 whole entry, looked up): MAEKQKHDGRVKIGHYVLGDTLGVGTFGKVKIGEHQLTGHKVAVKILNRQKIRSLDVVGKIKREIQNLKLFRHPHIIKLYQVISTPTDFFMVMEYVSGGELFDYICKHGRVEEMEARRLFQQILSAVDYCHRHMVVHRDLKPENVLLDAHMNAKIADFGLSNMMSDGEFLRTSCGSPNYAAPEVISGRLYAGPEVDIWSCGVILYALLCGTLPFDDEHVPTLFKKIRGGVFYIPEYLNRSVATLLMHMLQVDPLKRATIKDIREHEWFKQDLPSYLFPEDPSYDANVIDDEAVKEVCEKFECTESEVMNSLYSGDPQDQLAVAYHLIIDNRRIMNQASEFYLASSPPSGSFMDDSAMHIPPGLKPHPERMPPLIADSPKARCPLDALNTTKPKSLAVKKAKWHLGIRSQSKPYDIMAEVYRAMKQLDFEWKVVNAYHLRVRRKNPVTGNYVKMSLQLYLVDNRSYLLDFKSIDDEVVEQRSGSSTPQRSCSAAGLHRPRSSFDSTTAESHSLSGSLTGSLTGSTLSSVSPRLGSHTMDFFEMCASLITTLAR

[29] = target: PRKACB (human) (UniProt P22694)
[30] = target: PRKCH (human) (UniProt P24723)
[31] = target: PRKD3 (human) (UniProt O94806)
Chain of PRKD3 (human) (O94806 whole entry, looked up): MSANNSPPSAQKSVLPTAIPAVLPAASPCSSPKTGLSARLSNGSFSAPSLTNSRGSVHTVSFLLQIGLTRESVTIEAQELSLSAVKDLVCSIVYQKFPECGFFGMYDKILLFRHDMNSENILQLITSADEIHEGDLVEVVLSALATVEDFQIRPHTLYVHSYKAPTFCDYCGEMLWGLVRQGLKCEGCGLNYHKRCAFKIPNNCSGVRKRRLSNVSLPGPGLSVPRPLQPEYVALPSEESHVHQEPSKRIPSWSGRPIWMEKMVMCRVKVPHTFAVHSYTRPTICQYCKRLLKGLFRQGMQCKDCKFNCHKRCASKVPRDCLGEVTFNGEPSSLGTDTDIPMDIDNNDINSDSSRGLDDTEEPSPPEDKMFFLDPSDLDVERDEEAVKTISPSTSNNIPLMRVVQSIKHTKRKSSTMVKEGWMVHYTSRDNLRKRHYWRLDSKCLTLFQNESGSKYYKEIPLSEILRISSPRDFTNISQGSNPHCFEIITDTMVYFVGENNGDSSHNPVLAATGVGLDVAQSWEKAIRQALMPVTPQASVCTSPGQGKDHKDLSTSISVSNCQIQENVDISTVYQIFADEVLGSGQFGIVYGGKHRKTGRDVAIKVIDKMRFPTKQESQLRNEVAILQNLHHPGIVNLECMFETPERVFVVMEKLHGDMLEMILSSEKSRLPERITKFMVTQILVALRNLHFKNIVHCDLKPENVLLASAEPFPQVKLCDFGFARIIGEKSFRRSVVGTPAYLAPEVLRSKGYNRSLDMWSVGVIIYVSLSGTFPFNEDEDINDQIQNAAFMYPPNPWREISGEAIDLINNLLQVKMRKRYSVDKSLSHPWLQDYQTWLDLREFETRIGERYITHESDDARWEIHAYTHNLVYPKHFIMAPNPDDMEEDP

[32] = test system: RET (human), P07949 [V804M]
[33] = target: SBK1 (human) (UniProt Q52WX2)
[34] = target: STK32C (human) (UniProt Q86UX6)
[35] = target: STK33 (human) (UniProt Q9BYT3)
[36] = target: TEC (human) (UniProt P42680)
Chain of TEC (human) (P42680 whole entry, looked up): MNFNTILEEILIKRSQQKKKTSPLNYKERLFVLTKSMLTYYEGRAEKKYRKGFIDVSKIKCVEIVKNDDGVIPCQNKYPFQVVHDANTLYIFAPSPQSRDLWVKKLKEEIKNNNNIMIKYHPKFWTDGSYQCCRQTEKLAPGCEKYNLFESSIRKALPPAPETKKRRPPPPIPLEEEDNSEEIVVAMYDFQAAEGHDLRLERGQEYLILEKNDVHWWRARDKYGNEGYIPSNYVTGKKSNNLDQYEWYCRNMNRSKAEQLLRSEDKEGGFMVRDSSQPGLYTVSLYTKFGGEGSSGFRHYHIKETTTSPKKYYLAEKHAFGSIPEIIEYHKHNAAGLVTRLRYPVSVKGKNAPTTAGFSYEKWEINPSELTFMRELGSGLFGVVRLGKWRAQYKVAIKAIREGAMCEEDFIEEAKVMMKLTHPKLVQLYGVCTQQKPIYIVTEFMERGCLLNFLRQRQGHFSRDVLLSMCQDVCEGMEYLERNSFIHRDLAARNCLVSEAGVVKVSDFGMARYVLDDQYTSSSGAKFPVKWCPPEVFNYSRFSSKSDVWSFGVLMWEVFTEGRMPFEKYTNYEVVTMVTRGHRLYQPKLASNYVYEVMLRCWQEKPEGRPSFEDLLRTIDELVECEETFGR

[37] = target: TGFBR2 (human) (UniProt P37173)
[38] = target: TYRO3 (human) (UniProt Q06418)
Chain of TYRO3 (human) (Q06418 whole entry, looked up): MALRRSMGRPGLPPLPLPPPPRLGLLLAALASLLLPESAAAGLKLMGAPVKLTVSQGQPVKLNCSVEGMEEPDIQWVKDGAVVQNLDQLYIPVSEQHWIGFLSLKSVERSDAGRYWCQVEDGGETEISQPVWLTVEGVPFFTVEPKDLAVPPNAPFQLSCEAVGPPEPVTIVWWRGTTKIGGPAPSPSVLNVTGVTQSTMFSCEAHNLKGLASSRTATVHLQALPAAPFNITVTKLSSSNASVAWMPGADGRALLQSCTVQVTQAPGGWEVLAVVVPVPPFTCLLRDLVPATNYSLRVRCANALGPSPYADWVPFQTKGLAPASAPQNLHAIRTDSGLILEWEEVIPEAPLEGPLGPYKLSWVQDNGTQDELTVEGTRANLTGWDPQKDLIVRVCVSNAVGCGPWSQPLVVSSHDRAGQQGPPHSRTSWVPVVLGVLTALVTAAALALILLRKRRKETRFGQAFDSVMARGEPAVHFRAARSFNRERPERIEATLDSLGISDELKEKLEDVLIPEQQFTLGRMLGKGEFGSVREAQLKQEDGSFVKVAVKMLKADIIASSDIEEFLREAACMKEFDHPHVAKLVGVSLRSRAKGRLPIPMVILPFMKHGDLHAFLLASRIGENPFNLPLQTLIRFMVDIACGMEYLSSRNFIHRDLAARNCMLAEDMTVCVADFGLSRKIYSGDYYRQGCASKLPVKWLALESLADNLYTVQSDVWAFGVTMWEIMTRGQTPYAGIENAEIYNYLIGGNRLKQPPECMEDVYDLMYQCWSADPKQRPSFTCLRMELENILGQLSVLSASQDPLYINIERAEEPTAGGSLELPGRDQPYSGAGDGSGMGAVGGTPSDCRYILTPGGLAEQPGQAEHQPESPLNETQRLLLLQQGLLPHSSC

Chain of CAMK2B (human) (Q13554 whole entry, looked up): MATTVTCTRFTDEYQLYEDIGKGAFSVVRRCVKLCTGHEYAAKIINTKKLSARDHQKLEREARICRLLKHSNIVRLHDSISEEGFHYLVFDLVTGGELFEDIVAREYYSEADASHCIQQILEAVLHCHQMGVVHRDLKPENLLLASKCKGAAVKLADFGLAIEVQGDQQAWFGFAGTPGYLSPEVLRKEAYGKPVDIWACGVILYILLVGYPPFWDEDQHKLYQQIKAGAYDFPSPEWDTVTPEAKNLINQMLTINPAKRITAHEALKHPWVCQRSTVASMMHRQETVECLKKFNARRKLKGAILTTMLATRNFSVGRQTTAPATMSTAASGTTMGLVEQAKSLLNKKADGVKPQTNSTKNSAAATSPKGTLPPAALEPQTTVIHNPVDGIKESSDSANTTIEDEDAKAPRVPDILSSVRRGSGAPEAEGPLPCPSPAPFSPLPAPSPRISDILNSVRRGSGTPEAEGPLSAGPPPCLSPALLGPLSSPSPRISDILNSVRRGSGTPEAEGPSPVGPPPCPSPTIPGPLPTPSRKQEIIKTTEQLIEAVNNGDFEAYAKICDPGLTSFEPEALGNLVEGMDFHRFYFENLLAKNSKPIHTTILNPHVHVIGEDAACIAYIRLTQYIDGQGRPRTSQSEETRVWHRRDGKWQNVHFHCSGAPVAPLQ

SMILES	kinase still bound, per cent of control [1]	kinase still bound, per cent of control [2]	kinase still bound, per cent of control [3]	kinase still bound, per cent of control [4]	kinase still bound, per cent of control [5]	kinase still bound, per cent of control [6]	kinase still bound, per cent of control [7]	kinase still bound, per cent of control [8]	kinase still bound, per cent of control [9]	kinase still bound, per cent of control [10]	kinase still bound, per cent of control [12]	kinase still bound, per cent of control [13]	kinase still bound, per cent of control [15]	kinase still bound, per cent of control [17]	kinase still bound, per cent of control [19]	kinase still bound, per cent of control [20]	kinase still bound, per cent of control [21]	kinase still bound, per cent of control [22]	kinase still bound, per cent of control [23]	kinase still bound, per cent of control [24]	also measured
COc1cc(N2CCN(C)CC2)ccc1Nc1ncc2c(n1)N(C)c1ccccc1C(=O)N2C	100%	100%	100%	100%	100%	100%	100%	100%	100%	0.65%	100%	100%	100%	100%	100%	100%	100%	100%	100%	100%	kinase still bound, per cent of control [11]: 100%; kinase still bound, per cent of control [14]: 100%; kinase still bound, per cent of control [16]: 100%; kinase still bound, per cent of control [18]: 32%; kinase still bound, per cent of control [25]: 100%; kinase still bound, per cent of control [26]: 100%; kinase still bound, per cent of control [27]: 9.8%; kinase still bound, per cent of control [28]: 100%; kinase still bound, per cent of control [29]: 100%; kinase still bound, per cent of control [30]: 100%; kinase still bound, per cent of control [31]: 5.4%; kinase still bound, per cent of control [32]: 100%; kinase still bound, per cent of control [33]: 8.9%; kinase still bound, per cent of control [34]: 100%; kinase still bound, per cent of control [35]: 8.8%; kinase still bound, per cent of control [36]: 100%; kinase still bound, per cent of control [37]: 100%; kinase still bound, per cent of control [38]: 100%
CS(=O)(=O)N1CCN(Cc2cc3nc(-c4cccc5[nH]ncc45)nc(N4CCOCC4)c3s2)CC1	100%	100%	100%	100%	100%	100%	100%	100%	100%	100%	100%	100%	100%	100%	100%	100%	100%	100%	100%	100%	kinase still bound, per cent of control [11]: 100%; kinase still bound, per cent of control [14]: 100%; kinase still bound, per cent of control [16]: 100%; kinase still bound, per cent of control [18]: 100%; kinase still bound, per cent of control [25]: 100%; kinase still bound, per cent of control [26]: 100%; kinase still bound, per cent of control [27]: 100%; kinase still bound, per cent of control [28]: 100%; kinase still bound, per cent of control [29]: 100%; kinase still bound, per cent of control [30]: 100%; kinase still bound, per cent of control [31]: 100%; kinase still bound, per cent of control [32]: 100%; kinase still bound, per cent of control [33]: 100%; kinase still bound, per cent of control [34]: 100%; kinase still bound, per cent of control [35]: 100%; kinase still bound, per cent of control [36]: 100%; kinase still bound, per cent of control [37]: 100%; kinase still bound, per cent of control [38]: 100%
C=CC(=O)Nc1ccc(CN(C(=O)Nc2c(Cl)c(OC)cc(OC)c2Cl)c2cc(Nc3ccc(N4CCN(C)CC4)cc3)ncn2)cc1	100%	100%	100%	100%	100%	100%	100%	100%	100%	100%	2.3%	100%	100%	100%	100%	100%	100%	100%	100%	100%	kinase still bound, per cent of control [26]: 100%; kinase still bound, per cent of control [27]: 100%; kinase still bound, per cent of control [28]: 100%; kinase still bound, per cent of control [29]: 100%; kinase still bound, per cent of control [30]: 100%; kinase still bound, per cent of control [31]: 100%; kinase still bound, per cent of control [32]: 100%; kinase still bound, per cent of control [34]: 100%; kinase still bound, per cent of control [35]: 31%; kinase still bound, per cent of control [36]: 7.2%; kinase still bound, per cent of control [37]: 100%; kinase still bound, per cent of control [38]: 100%

Source: the kinase profiling compilation of Christmann-Franck et al. (2016)
